Data reported in patent publication US4875925A, “Herbicidal method using diflufenican” (May & Baker Limited, priority 1986, dated 1989).

Assays:
Assay type in all cases: in vivo
Lamium purpureum = assay: Field control of Lamium purpureum in winter barley and winter wheat (Experiment 3); conditions: diflufenican 80 g/ha, trifluralin 800 g/ha, or both; for % weed phytotoxicity 72 days after spraying: in winter barley (variety Igri); for % weed phytotoxicity 98 days after spraying: in winter wheat (variety Galahad)
Source text: (§1) Diflufenican formulated as a 50% w/v aqueous suspension concentrate (Example 2), trifluralin as a 48% w/v emulsifiable concentrate (commercial product and a mixed formulation of diflufenican and trifluralin containing 44% w/v total active ingredient (Example 6) were applied at 0.16 l, 1.67 l and 2 l/ha respectively pre-emergence and just at emergence to winter barley and winter wheat to control Lamium purpureum pre-emergence under field conditions. The treatments were applied to three replicate 30 m^2 plots in a spray volume of 220 l/ha (winter barley) and 206 l/ha (winter wheat) using a motorised small plot sprayer. Visual % phytotoxicity was recorded and the results are given below.

[1] = test system: Winter barley (variety Igri); assay: Field crop phytotoxicity, winter barley (Experiment 3); conditions: diflufenican 80 g/ha, trifluralin 800 g/ha, or both
Source text: as §1

[2] = test system: Winter wheat (variety Galahad); assay: Field crop phytotoxicity, winter wheat (Experiment 3); conditions: diflufenican 80 g/ha, trifluralin 800 g/ha, or both
Source text: as §1

Alopecurus myosuroides = assay: Greenhouse pre-emergence weed control, pendimethalin and diflufenican (Experiment 1); conditions: 22 days after treatment
Protocol: Greenhouse experiment showing the nature of biological synergism between pendimethalin and diflufenican applied pre-emergence
A factorial experiment with 30 treatments was carried out to investigate the interaction of pendimethalin and diflufenican at a wide range of doses i.e. 0, 250, 500, 1000 and 2000 g/ha of pendimethalin plus diflufenican at 0, 31, 62, 125, 250 and 500 g/ha.
All treatments were made in an appropriate volume of water by using appropriate quantities of a 33% w/v emulsifiable concentrate of pendimethalin (commercial product) and diflufenican formulated as an experimental aqueous suspension concentrate (Example 2 hereinafter) containing 50% w/v active ingredient to give the above dose rates in a spray volume of 290 l/ha. All treatments were applied using a laboratory sprayer fitted with a Sparying Systems Teejet SS 8003E operating at 2.94 kgf/cm^2. Treatments were applied to about 20 Alopecurus myosuroides seeds sown 1 cm deep in a loamy soil in 7.5 cm square pots. There were 4 replicate pots per treatment which were arranged in a randomised block design in a glasshouse after treatment. The pots were watered by a combination of overhead irrigation and sub-irrigation. A visual assessment of weed control was made 22 days after treatment as a percentage compared to the untreated pots. […]

Stellaria media = assay: Greenhouse post-emergence weed control, Stellaria media (Experiment 2); conditions: 2 leaf stage, 14 days after treatment
Protocol: (§2) Greenhouse experiment showing the nature of biological synergism between pendimethalin and diflufenican applied post-emergence
(§3) A similar experiment to that hereinbefore described in Experiment 1 was carried out with pendimethalin and diflufenican applied to either 4 plants of Stellaria media at the 2 leaf stage or 4 plants of Galium aparine at the 2 whorl (branching initiated) stage. The following 90% herbicidally effective doses (ED90) in grams of diflufenican per hectare were calculated from the mean percentage weed control 14 days after treatment.

Galium aparine = assay: Greenhouse post-emergence weed control, Galium aparine (Experiment 2); conditions: 2 whorl stage, 14 days after treatment
Protocol: as §2, §3

Row | SMILES | % weed phytotoxicity 72 days after spraying (Lamium purpureum) | % weed phytotoxicity 98 days after spraying (Lamium purpureum) | Maximum % crop phytotoxicity [1] | Maximum % crop phytotoxicity [2] | ED50 (50% herbicidally effective dose) (Alopecurus myosuroides; diflufenican alone) | ED90 (90% herbicidally effective dose) (Stellaria media; diflufenican alone) | ED90 (90% herbicidally effective dose) (Galium aparine; diflufenican alone) | ED50 of pendimethalin alone (Alopecurus myosuroides; pendimethalin alone) | ED90 of pendimethalin alone (Stellaria media; pendimethalin alone) | ED90 of pendimethalin alone (Galium aparine; pendimethalin alone)
1 | CCCN(CCC)c1c([N+](=O)[O-])cc(C(F)(F)F)cc1[N+](=O)[O-] [Trifluralin, 2,6-dinitro-N,N-dipropyl-4-trifluoromethylaniline] | 20% | 5% | 0% | 0% | – | – | – | – | – | –
2 | O=C(Nc1ccc(F)cc1F)c1cccnc1Oc1cccc(C(F)(F)F)c1 [diflufenican, N-(2,4-difluorophenyl)-2-(3-trifluoromethylphenoxy)nicotinamide] | 40% | 80% | 5.8% | 0% | 370 grams of diflufenican per hect | 340 grams of diflufenican per hect | > 500 grams of diflufenican per hect | – | – | –
3 | CCC(CC)Nc1c([N+](=O)[O-])cc(C)c(C)c1[N+](=O)[O-] [pendimethalin, N-(1-ethylpropyl)-3,4-dimethyl-2,6-dinitroaniline] | – | – | – | – | – | – | – | 2071 g/ha | 1653 g/ha | greater than 2000 g/ha
